Source: patent publication EP0706509B1, “SHORT CHAIN 2-HYDROXYCARBOXYLIC ACID-BASED DERIVATIVES OF CERAMIDES” (DSM N.V., priority 1994, dated 1995)

Tests used:
[1] = test system: healthy human skin; assay: Skin roughness by profilometry (mean depth of roughness Rz) on volar forearms, 7 days of treatment then SDS irritation; assay type: in vivo; set-up: unit not given here
Method: Roughness was measured by profilometry using a stylus instrument (OFR 01; Romano GmbH, Cologne, Germany). Silicon impressions from the test areas of the volar forearm were prepared. The dental mass Silasoft N® (Detax-K. Huber K.G., Karlsruhe, Germany) was used for making the impressions. The parameter mean depth of roughness Rz (DIN 4768/1) was measured. By convention the scan length was divided into […] equal-sized areas. In each area the distance from the highest peak to the lowest trough was established. The average of these five distances is Rz.
(§1) Two panels of each five female volunteers at the age of 19-55 years with healthy skin were included in the test.
(§2) Measurements were carried out at a temperature of 22±1°C and a relative humidity of 60±10%. Subjects were accustomed to ambient conditions for 20 min prior to any measurement. The test was carried out on the volar forearms. Initially untreated skin was measured in all six areas to find baseline values. Then the five test products were applied, one area remained untreated. The dose of applicaton was about 2 mg/cm^2. In the following 7 days a home application in the morning and evening took place. Measurements were evaluated during the treatment period on day 7 two hours after the last daily application. Then the test areas on both forearms were treated with a 5% aqueous solution of sodium lauryl sulphate (SDS) and an occlusive dressing applied to induce skin irritation. The dressing was removed two hours later, and the regions were gently washed with water and air-dried. After one hour the measurements were done when the level had stabilised.
(§3) Use of other cosmetic products was restricted on the test areas throughout the whole study.
(§4) • before start treatment; • two hours after last application on day 7; • 1 hour after irritation with SDS (2 hours under occlusion).

[2] = test system: barrier function of the skin; assay: Trans-epidermal water loss (TEWL, Tewameter) on volar forearms, 7 days of treatment then SDS irritation; assay type: in vivo, human; set-up: unit not given here
Method: Measurements of trans-epidermal water loss (TEWL) were performed with the Tewameter (Courage & Khazaka, Cologne, Germany). The Tewameter is a device for measurement of water evaporation on skin surfaces based on the diffusion principle discovered by A. Fick in 1885.
as §1, §2, §3, §4

[3] = test system: barrier function of the skin; assay: Skin colour by chromametry (Minolta Chromameter CR 300) on volar forearms, 7 days of treatment then SDS irritation; assay type: in vivo, human; set-up: key: CIE a* value (green-red axis); higher = redder skin
Method: Skin colour was measured by chromametry with a Minolta Chromameter CR 300 (Minolta, Ahrensburg, Germany) in compliance with the Commission International de l'eclairage (CIE) system, according to which the registration of colour is adjusted to the non-linear colour sensitivity of human eye. A colour is expressed in a three-dimensional coordinate system with green-red (a*), yellow-blue (b*) and L* axes (brightness). The skin surface is illuminated by a Xenon flash light and remitted light registered and analysed by a photoreceiver. Chromametry is sensitive and accurate for the characterization of redness of skin irritation. In inflamed skin a positive change on the a* axis is observed, towards red. Each value was the average of three recordings.
as §1, §2, §3, §4

[4] = test system: healthy human skin; assay: Desquamation: dansyl chloride fluorescence extraction score on volar forearms, 7 days of treatment then SDS irritation; assay type: in vivo
Method: The stratum corneum was stained with dansyl chloride. Dansyl chloride was mixed to homogeneity at 5% (w/w) in petrolatum and applied to the volar forearms of the volunteers under semi-occlusive tape, one day before the beginning of the study. After 24 h the patches were removed and any excess material wiped off under running tape water. Fluorescence was assessed under UV illumination for intensity and homogeneity by a trained evaluator using the following scale for fluorescence extraction: • 0 : no fluorenscence extraction • 1 : slight fluorescence extraction • 2 : moderate fluorescence extraction • 3 : strong fluorescence extraction • 4 : complete fluorescence extraction. Half scores were used when needed.
as §1, §2, §3, §4

[5] = 0.05% in oil-in-water emulsion, 7 days pretreatment, after SDS (5% aqueous, 2 h occlusion, measured 1 h later)
[6] = 0.05% in oil-in-water emulsion, about 2 mg/cm^2 morning and evening, after 7 days
[7] = 0.05% in oil-in-water emulsion, day 0 (baseline before start of treatment)
[8] = 0.2% in oil-in-water emulsion, 7 days pretreatment, after SDS (5% aqueous, 2 h occlusion, measured 1 h later)
[9] = 0.2% in oil-in-water emulsion, about 2 mg/cm^2 morning and evening, after 7 days
[10] = 0.2% in oil-in-water emulsion, day 0 (baseline before start of treatment)
[11] = 0.5% in oil-in-water emulsion, 7 days pretreatment, after SDS (5% aqueous, 2 h occlusion, measured 1 h later)
[12] = 0.5% in oil-in-water emulsion, about 2 mg/cm^2 morning and evening, after 7 days
[13] = 0.5% in oil-in-water emulsion, day 0 (baseline before start of treatment)
[14] = 0.05% in oil-in-water emulsion, 7 days pretreatment, after SDS (5% aqueous, 2 h occlusion), scale 0 to 4
[15] = 0.05% in oil-in-water emulsion, morning and evening, after 7 days, scale 0 (no) to 4 (complete fluorescence extraction)
[16] = 0.05% in oil-in-water emulsion, day 0 (baseline), scale 0 (no) to 4 (complete fluorescence extraction)
[17] = 0.2% in oil-in-water emulsion, 7 days pretreatment, after SDS (5% aqueous, 2 h occlusion), scale 0 to 4
[18] = 0.2% in oil-in-water emulsion, day 0 (baseline), scale 0 (no) to 4 (complete fluorescence extraction)
[19] = 0.5% in oil-in-water emulsion, 7 days pretreatment, after SDS (5% aqueous, 2 h occlusion), scale 0 to 4
[20] = 0.5% in oil-in-water emulsion, day 0 (baseline), scale 0 (no) to 4 (complete fluorescence extraction)

| SMILES | Skin roughness [1, 5] | Skin roughness [1, 6] | Skin roughness [1, 7] | Skin roughness [1, 8] | Skin roughness [1, 9] | Skin roughness [1, 10] | Skin roughness [1, 11] | Skin roughness [1, 12] | Skin roughness [1, 13] | TEWL [2, 5] | TEWL [2, 6] | TEWL [2, 7] | TEWL [2, 8] | TEWL [2, 9] | TEWL [2, 10] | TEWL [2, 11] | TEWL [2, 12] | TEWL [2, 13] | skin colour [3, 5] | skin colour [3, 6] | also measured |
| --- | --- | --- | --- | --- | --- | --- | --- | --- | --- | --- | --- | --- | --- | --- | --- | --- | --- | --- | --- | --- | --- |
| CCCCCCCCCCCCCC[C@@H](O)[C@@H](O)[C@H](CO)NC(=O)C(O)CCCCCC (stereo partly shown) [Cer6/OH-C8, N-(2-hydroxyoctanoyl)-phytosphingosine] | 121.8 ± 11.6 | 119.1 ± 8.8 | 133.6 ± 12.5 | 118.7 ± 7.6 | 118.5 ± 8.2 | 147.1 ± 15.5 | 82.2 ± 7.1 | 98 ± 6.9 | 111.2 ± 6 | 14.7 ± 4.2 | 5.7 ± 1.9 | 5.7 ± 1.3 | 10.12 ± 1.9 | 5.5 ± 1.6 | 5.4 ± 0.7 | 13 ± 4.4 | 7.9 ± 2.7 | 6.5 ± 2.2 | 9.2 ± 0.8 | 6.2 ± 1.2 | skin colour [3, 7]: 7 ± 1.2; skin colour [3, 8]: 8.4 ± 0.5; skin colour [3, 9]: 6.3 ± 0.7; skin colour [3, 10]: 6.8 ± 0.5; skin colour [3, 11]: 10.2 ± 0.9; skin colour [3, 12]: 8.3 ± 1.1; skin colour [3, 13]: 6.5 ± 0.6; Desquamation (fluorescence extraction) [4, 14]: 0.8 ± 0.4; Desquamation (fluorescence extraction) [4, 15]: 0,4 ± 0,5; Desquamation (fluorescence extraction) [4, 16]: 0; Desquamation (fluorescence extraction) [4, 17]: 0,8 ± 0,4; Desquamation (fluorescence extraction) [4, 18]: 0; Desquamation (fluorescence extraction) [4, 19]: 1 ± 0; Desquamation (fluorescence extraction) ([4]; 0.5% in oil-in-water emulsion, morning and evening, after 7 days, scale 0 (no) to 4 (complete fluorescence extraction)): 0,4 ± 0,5; Desquamation (fluorescence extraction) [4, 20]: 0 |
| CCCCCCCCCCCCCC[C@@H](O)[C@@H](O)[C@H](CO)NC(=O)[C@H](C)O [Cer6/OH-C3, N-[(S)-2-hydroxypropanoyl]-phytosphingosine] | 96.9 ± 8.1 | 109.1 ± 16.4 | 131.2 ± 15.5 | 92.9 ± 9.7 | 91.9 ± 9.9 | 104.7 ± 9 | 116.5 ± 14.8 | 112.9 ± 15.2 | 131.1 ± 15.2 | 16.6 ± 5.2 | 8.2 ± 3.5 | 5 ± 1.1 | 13.5 ± 6 | 7.2 ± 1.6 | 6.1 ± 1.5 | 11.6 ± 3.3 | 8 ± 1.9 | 6 ± 1.2 | 13.1 ± 1.8 | 7.6 ± 0.8 | skin colour [3, 7]: 6.7 ± 0.4; skin colour [3, 8]: 11.4 ± 0.6; skin colour [3, 9]: 8.5 ± 0.9; skin colour [3, 10]: 7.8 ± 0.9; skin colour [3, 11]: 9.5 ± 1.3; skin colour [3, 12]: 8.7 ± 0.7; skin colour [3, 13]: 8.2 ± 0.5; Desquamation (fluorescence extraction) [4, 14]: 0,8 ± 0,4; Desquamation (fluorescence extraction) [4, 15]: 0,2 ± 0,4; Desquamation (fluorescence extraction) [4, 16]: 0; Desquamation (fluorescence extraction) [4, 17]: 1 ± 0; Desquamation (fluorescence extraction) ([4]; 0.2% in oil-in-water emulsion, morning and evening, after 7 days, scale 0 (no) to 4 (complete fluorescence extraction)): 0,2 ± 0,4; Desquamation (fluorescence extraction) [4, 18]: 0; Desquamation (fluorescence extraction) [4, 19]: 1 ± 0; Desquamation (fluorescence extraction) [4, 20]: 0 |
